Assay results published in US8871738B2, “Fused bicyclic oxazolidinone CETP inhibitor” (Merck Sharp & Dohme Corp., priority 2011, dated 2014).

Target: endogenous CETP from serum (Homo sapiens (Human), UniProt P11597)
Test: RTA assay in 95% human serum (CETP-catalyzed CE and TG transfer, endogenous CETP)
Assay type: biochemical
Conditions: RTA assay in 95% human serum; read-out: IC50

Chain of endogenous CETP from serum (P11597 18-493 limits assumed): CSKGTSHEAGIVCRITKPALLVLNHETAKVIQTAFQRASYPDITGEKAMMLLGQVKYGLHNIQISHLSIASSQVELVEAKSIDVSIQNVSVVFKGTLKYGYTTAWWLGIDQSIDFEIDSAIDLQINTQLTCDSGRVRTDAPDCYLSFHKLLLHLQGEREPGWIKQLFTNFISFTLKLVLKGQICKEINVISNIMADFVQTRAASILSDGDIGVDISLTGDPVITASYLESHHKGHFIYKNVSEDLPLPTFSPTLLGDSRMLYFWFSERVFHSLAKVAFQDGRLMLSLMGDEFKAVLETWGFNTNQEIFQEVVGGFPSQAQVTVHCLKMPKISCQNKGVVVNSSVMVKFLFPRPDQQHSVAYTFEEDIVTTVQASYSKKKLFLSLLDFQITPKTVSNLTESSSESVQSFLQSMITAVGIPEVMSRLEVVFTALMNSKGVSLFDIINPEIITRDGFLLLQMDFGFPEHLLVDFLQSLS

SMILES: COc1ncc(-c2c(C)cc(C(=O)O)cc2C)cc1-c1ncc(C(F)(F)F)cc1[C@@H]1CC[C@H]2[C@@H](c3cc(C(F)(F)F)cc(C(F)(F)F)c3)OC(=O)N12 [Example 70, 4-[3-{(1R,5S,7aS)-1-[3,5-bis(trifluoromethyl)phenyl]-3-oxotetrahydro-1H-pyrrolo[1,2-c][1,3]oxazol-5-yl}-2′-methoxy-5-(trifluoromethyl)-2,3′-bipyridin-5′-yl]-3,5-dimethylbenzoic acid]
- IC50: 0.751 µM

SMILES: COc1cc(F)c(C(C)C)cc1-c1ccc(C(F)(F)F)cc1[C@@H]1C=C[C@H]2[C@@H](c3cc(C(F)(F)F)cc(C(F)(F)F)c3)OC(=O)N12 [Example 51, (1R,5S,7aS)-1-[3,5-bis(trifluoromethyl)phenyl]-5-[4′-fluoro-2′-methoxy-5′-(1-methylethyl)-4-(trifluoromethyl)biphenyl-2-yl]-5,7a-dihydro-1H-pyrrolo[1,2-c][1,3]oxazol-3-one]
- IC50: 0.122 µM

SMILES: COc1cc(F)c(-c2ccc(C(=O)O)cc2C)cc1-c1ccc(C(F)(F)F)cc1[C@@H]1CC[C@H]2[C@@H](c3cc(C)cc(C(F)(F)F)c3)OC(=O)N12 [Example 29, 6′-fluoro-4′-methoxy-2-methyl-2″- {(1R,5S,7aS)-1-[3-methyl-5-(trifluoromethyl)phenyl]-3-oxotetrahydro-1H-pyrrolo[1,2-c][1,3]oxazol-5-yl}-4″- (trifluoromethyl)-1,1′:3′,1″- terphenyl-4-carboxylic acid]
- IC50: 0.0447 µM

SMILES: COc1cc(F)c(C(C)C)cc1-c1ccc(C(F)(F)F)cc1[C@@H]1CCC[C@H]2[C@@H](c3cc(C(F)(F)F)cc(C(F)(F)F)c3)OC(=O)N12 [Example 43, (1R,5S,8aS)-1-[3,5-bis(trifluoromethyl)phenyl]-5-[4′-fluoro-2′-methoxy-5′-(1-methylethyl)-4-(trifluoromethyl)biphenyl-2-yl]hexahydro[1,3]oxazolo[3,4-a]pyridin-3-one]
- IC50: 1.21 µM

SMILES: O=C1O[C@H](c2cc(C(F)(F)F)cc(C(F)(F)F)c2)[C@@H]2CC[C@@H](c3cc(C(F)(F)F)ccc3C3=CCCCC3)N12 [Example 17, (1R,5S,7aS)-1-[3,5-bis(trifluoromethyl)phenyl]-5-[2-cyclohex-1-en-1-yl-5-(trifluoromethyl)phenyl]tetrahydro-1H-pyrrolo[1,2-c][1,3]oxazol-3-one]
- IC50: 0.0736 µM

SMILES: COc1ccc(C)cc1-c1ccc(C(F)(F)F)cc1[C@@H]1CC[C@H]2[C@@H](c3cc(C(F)(F)F)cc(C(F)(F)F)c3)OC(=O)N12 [Example 13, (1R,5S,7aS)-1-[3,5-bis(trifluoromethyl)phenyl]-5-[2′-methoxy-5′-methyl-4-(trifluoromethyl)biphenyl-2-yl]tetrahydro-1H-pyrrolo[1,2-c][1,3]oxazol-3-one]
- IC50: 0.263 µM

SMILES: COc1cc(F)c(-c2ccc(C(=O)O)cc2C)cc1-c1cnc(C(F)(F)F)cc1[C@@H]1CC[C@H]2[C@@H](c3cc(C(F)(F)F)cc(C(F)(F)F)c3)OC(=O)N12 [Example 53, 5′-[4-{(1R,5S,7aS)-1-[3,5-bis(trifluoromethyl)phenyl]-3-oxotetrahydro-1H-pyrrolo[1,2-c][1,3]oxazol-5-yl}-6-(trifluoromethyl)pyridin-3-yl]-2′-fluoro-4′-methoxy-2-methylbiphenyl-4-carboxylic acid]
- IC50: 0.191 µM

SMILES: COc1cc(F)c(C(C)C)cc1-c1cnc(N(C)C)nc1[C@@H]1C=C[C@H]2[C@@H](c3cc(C(F)(F)F)cc(C(F)(F)F)c3)OC(=O)N12 [Example 48, (1R,5S,7aS)-1-[3,5-bis(trifluoromethyl)phenyl]-5-{2-(dimethylamino)-5-[4-fluoro-2-methoxy-5-(1-methylethyl)phenyl]pyrimidin-4-yl}-5,7a-dihydro-1H-pyrrolo[1,2-c][1,3]oxazol-3-one]
- IC50: 0.695 µM
